This note sets out measurements from patent US20240385182A1, “MASKED FLUOROGENIC LIPID COMPOUNDS, LIPID PARTICLES COMPRISING THE SAME, AND METHODS OF USE THEREOF” (Rutgers, The State University of New Jersey, priority 2023, published 2024).

The series in a line: Photophysical characterization of probes and uncaged forms (relative fluorescence quantum yield, extinction coefficient, brightness). It is filed as physicochemical. In a few lines: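 Relative fluorescence quantum yields of caged probes and uncaged forms, referenced to coumarin 343 (ΦF 0.63 in ethanol) for triazole-coumarins and fluorescein (ΦF 0.79 in ethanol) for triazole-fluoresceins. Measured in Tris 50 mM, pH 7.5; coumarin largely aryloxide (TEG-TC pKa 7.1±0.1 by UV-Vis).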

Molecules are shown by their SMILES.

On to `CCCCCCCCCCCCCCCC(=O)OCC(COP(=O)([O-])OCC[N+](C)(C)Cc1cn(-c2cc3ccc(OC(=O)Oc4ccc(CCC(=O)C(F)(F)F)cc4)cc3oc2=O)nn1)OC(=O)CCCCCCCCCCCCCCC` (racemic) [DPPC-TC-ONOO^−], for which the Emmax is 471.2 nm, the Exmax is recorded as 395.0 nm and the “Ext. Coeff.” value was 2784 M⁻¹ cm⁻¹.
